In general, viability refers to a read-out of living cells in per cent, often relative to untreated cells.

From patent US20200190077A1, “NEUROPROTECTIVE HYDRAZIDES” (priority 2018, published 2020) come the findings set out here.

SMILES strings stand for the structures.

For assay [1], the system named is SUMOylation of His-RanGap (SUMO-E1 (SAE), SUMO-E2 (UBC9), GST-SUMO). The assay is described as follows: HTRF assay measuring increase in SUMOylation of His-RanGap. The format is biochemical. The settings on record: His-RanGap substrate; HTRF 665/620 ratio; 30 min at room temperature; triplicate. On the procedure: Assay Measuring Increase in SUMOylation of his-RanGap.
We utilized an HTRF assay containing SUMO-E1 (SAE), SUMO-E2 (UBC9), GST-SUMO and His-RanGap, a known SUMO substrate, as well as the respective fluorescent antibodies. The assay was run in 1536-well plate format and the selected activators were chosen based on their ability to increase the FRET signal over a baseline level. In 1536-well white plates, 2 μl of phosphate buffered saline (assay buffer) was dispensed into columns 1 and 2, and 2 μl of Mixture 1 (37.5 nM E1 and 100 nM His-RanGap-1) in assay buffer (50 mM Tris-HCl pH 7.4, 0.3 mM DTT, 10 mM MgCl2, 0.005% Tween-20), was dispensed into columns 3-48. Using a pintool, 70 nl of 2 mM compounds in DMSO was dispensed to columns 5-48 and 70 nl of DMSO was dispensed to columns 1-4. Using the Thermo Scientific MultiDrop Combi, 2 μL of Mixture 2 (20 mM ATP, 12.5 nM E2 and 30 nM GST-SUMO in buffer) was dispensed to all wells and incubated for 30 min. at room temperature followed by 1 μl of 500 mM KF. Plates were read on a PheraStar in a HTRF mode (Ex: 337 nm; Em: 620/665 nm). The ratio of fluorescence 665 over 620 was utilized as a readout of the assay. Increase in SUMOylation was calculated by comparison to baseline level. Measurements were done in triplicate.
On the technique in general: In TR-FRET formats the signal depends on donor and acceptor labels being close together.

A further assay has as its system CSM14.1 neuronal cells. The assay is described as follows: Rescue of CSM14.1 neurons from thapsigargin-induced cell death (ATPlite). The format is cell-based. The note with it: Rattus norvegicus, Neuron; 15 μM thapsigargin, 20 h; 10 μM compound, 2 h preincubation; cellular ATP content; read-out: % CSM14.1 Cell Viability after treatment with 15 μM TG in Presence of 10 μM compound. The source says: Ability of Compounds to Rescue CSM14.1 Neurons from Thapsigargin-Induced Cell Death.
To assess the ability of the compounds to rescue neurons from ER stress-induced cell death, the rat striatal neuroprogenitor cell line CSM14.1 was used. Endoplasmic reticulum (ER) stress has been established as the major cause of neuronal loss in stroke, ischemia, and neurodegeneration (Tajiri, S.; Oyadomari, S.; Yano, S.; Morioka, M.; Gotoh, T.; Hamada, J. I.; Ushio, Y.; Mori, M. Cell Death Differ. 2004, 11, 403-415; Kohno, K.; Higuchi, T.; Ohta, S.; Kumon, Y.; Sakaki, S. Neurosci. Lett. 1997, 224, 17-20; ladecola, C.; Zhang, F.; Casey, R.; Nagayama, M.; Ross, M. E. J. Neurosci. 1997, 17, 9157-9164). Thus, we used the known ER stress-causing agent thapsigargin (TG) to model the compromised state in vitro. TG causes 100% cell death in most cases, and compounds were assessed for neuroprotection by measuring cell viability when dosed at 10 μM. CSM14.1 cells were recovered from cultures by trypsinization and plated in 96-well plates and incubated overnight at 32° C. 5 μl of test compound was added to achieve a final concentration of […]. Salubrinal and DMSO without compound were used as positive and negative controls, respectively. After 2 h of preincubation, TG-containing DMEM was added to give a final concentration of 15 μM and incubated for an additional 20 h. Cell viability was assessed by a cellular ATP content assay (ATPlite, PerkinElmer Life Sciences).

For the molecule `Cc1ccc2sc(NNC(=O)c3cc(=O)c4ccccc4o3)nc2c1C` [Compound B1, N′-(4,5-dimethylbenzo[d]thiazol-2-yl)-4-oxo-4H-chromene-2-carbohydrazide], in assay [1], the “% INCREASE IN SUMOylation over endogenous baseline level” value is “C (C = 31%-40% increase)”. In the assay with CSM14.1 neuronal cells, the viability at 10 µM lay within 40 to 50%.
With `Cc1cc(C)c2nc(NNC(=O)c3cc(=O)c4ccccc4o3)sc2c1` [Compound B2, N′-(4,6-Dimethylbenzo[d]thiazol-2-yl)-4-oxo-4H-chromene-2-carbohydrazide], the “% INCREASE IN SUMOylation over endogenous baseline level” value in assay [1] is “C (C = 31%-40% increase)”. Besides, the viability at 10 µM in the assay with CSM14.1 neuronal cells is 51 to 60%.
On the same counts, the results for `COc1cccc2sc(NNC(=O)C3COc4ccccc4O3)nc12` (stereo not drawn) [Compound B3, N′-(4-methoxybenzo[d]thiazol-2-yl)-2,3-dihydrobenzo[b][1,4]dioxine-2-carbohydrazide] are “A (A = 10%-20% increase)” and 51 to 60%.
